Read-outs that look alike come from different tables or passages of the source.
What was measured:
[1] = FIG. 2; cited from earlier work
[2] = Kinetic decay model of weight loss fitted to published clinical data (efficacy benchmarks); type: in vivo, human; settings: for ΔWt. LossMAX: model parameter; for Decay Coeff. (−b): model Weight (t)=Weight Plateau+ΔWt. LossMAX e^-bt, across studies and doses
From the text: In order to better understand the underlying dynamics of weight loss agents over time, several weight loss agents were selected to study and attempt to model. These included a wide range of weight loss agents including dietary supplements (C. sinensis & alginate), OTC drugs (orlistat), and Rx drugs (sibutramine, Qysmia®). Over time, more may be added to the database to test hypotheses and to improve the modeling of the underlying weight loss dynamics.
All agents followed the same basic kinetic model: Weight (t)=Weight Plateau+ΔWt. LossMAX e-^bt, where Weight Plateau=Starting Weight−ΔWt. LossMAX. Where t=time, b=decay coefficient, and ΔWt. LossMAX=maximum amount of weight lost, which appears to be a function of weight loss agent, dosage, and patient population. […] It does appear to vary by weight loss agent. The variation within a weight loss agent appears to be fairly low. It is critical to note that these are only the initial observations based upon estimating the results using published data. The raw data, more observations, and a more sophisticated statistical analysis are needed in order to make more definitive claims. The fact that all weight loss agents seem to follow the same relationship supports the adaptation hypothesis. […] All of the observed data fit the model well. The decay coefficient was estimated to be 0.1±0.02, and all the studies except Rossner fell within one standard deviation of this mean. The decay coefficient for the Rossner study was 0.05, which is slightly more than two standard deviations from the mean. However, it is important to put this in context. The maximum difference between the model using 0.05 as the decay coefficient and 0.10 is about 2.0 kg, which falls within the observation error range. It is unclear whether this difference was due to random chance, to variation caused by the inherent error arising from estimating the data from the published graphs, or to something more fundamental. […] LossMAX for diabetic vs non-diabetic patients on orlistat. […] However, given the number of studies analyzed, it is premature to draw any definitive conclusions beyond that these are interesting data points from which a hypothesis can be generated. All of the observed data for Qysmia fit the model well, see FIG. 8. The decay coefficient was estimated to be 0.08±0.01. The decay coefficient was very consistent across all the studies and doses. Given these were registration studies, the larger sample sizes may have allowed for better resolution. The observed data for sibutramine also fit the model well. Since there were more studies, it was impractical to show them all in a graph. The decay coefficient was estimated to be 0.14±0.04. Sibutramine offered the widest number of conditions studied, and as expected, there was more variability in the decay coefficient.

[3] = Rough point estimate of effect size by weight loss agent from published studies (Table 7); type: in vivo, human
Experimental: A rough point estimate of the effect size by weight loss agent was developed using data from published studies.
The ΔWt. LossMAX for Garcinia sp. from 1.0 kg to 3.0 kg assumes the dose response curve model is valid, which has not been proven. The dosage of Phaseolus vulgaris is measured in α-amylase blocking units. Coffea canefora is administered as Syetol®, a commercial preparation most commonly used in the studies (400 mg). Crocus sativus dosages for depression are much lower 30 mg and have been shown for extracts of both stigma & leaf.

[4] = cited from earlier work; for thermogenic response: in man
[5] = Estimated effect of first, second and third treatment phase (Tables 1-3); type: in vivo, human
From the text: In some embodiments the first treatment phase may comprise administering at least one weight loss agent. In some embodiments, the at least one weight loss agent is a protein kinase A modulator, a neurotransmitter modulator or a combination thereof. In some embodiments, the weight loss agents administered during this treatment phase are selected from Camellia sinensis, caffeine, Capsicum sp., 5-hydroxytryptophan, and any combination thereof. In yet other embodiments the first treatment phase comprises administering Camellia sinensis, caffeine, Capsicum sp., 5-hydroxytryptophan, or any combination thereof. […] In some embodiments, the second treatment phase comprises administering at least one weight loss agent. In some embodiments, the at least one weight loss agent is a macro nutrient absorption modulator, a neurotransmitter modulator or a combination thereof. In some embodiments, the at least one weight loss agent is selected from Phaseolus vulgaris, […] gabonensis, Rhodiola rosea, and any combination thereof. In yet other embodiments the second treatment phase comprises administering Phaseolus vulgaris, […] gabonensis, Rhodiola rosea, or any combination thereof. […] In some embodiments, the third treatment phase comprises administering at least one weight loss agent. In some embodiments, the at least one weight loss agent is a Protein Kinase A modulator, Adenosine Mono-Phosphate activated Kinase (AMPk) modulator, or a combination thereof. In some embodiments, the at least one weight loss agent is selected from Coffea canefora, Coleus forskholii, yohimbine, caffeine, and any combination thereof. In yet other embodiments, the third treatment phase comprises administering Coffea canefora, Coleus forskholii, yohimbine, caffeine, or any combination thereof.

[6] = system: α2-adrenergic receptor; settings: functions as an antagonist; cited from earlier work
[7] = system: α1-receptor; settings: functions as an antagonist; cited from earlier work
[8] = Systematic review and meta-analysis of randomized clinical trials of Garcinia extract (HCA) with dose-response curve; type: in vivo, human; settings: curve ΔWt=ΔWtmax(1−e^−b*dosage)
From the text: A systematic review and meta-analysis to examine the efficacy of Garcinia extract, hydroxycitric acid (HCA) as a weight reduction agent, using data from randomized clinical trials, found a small, statistically significant difference in weight loss of -0.9 kg between HCA and placebo. A nonlinear, significant (P<0.05) correlation between the dosage of HCA and body weight loss seems to exist. This relationship follows a curve ΔWt=Δ[…]) which is consistent with a first order ligand binding kinetics. […] However, HCA quickly approaches its asymptotic maximum by 2800 mg/day.

[9] = when ingested; cited from earlier work

Compound: CC(C)(N)Cc1ccccc1 [Phentermine]
- time to reduction or complete cessation of weight loss [1]: about 4 weeks

Compound: CCCCCCCCCCC[C@@H](C[C@@H]1OC(=O)[C@H]1CCCCCC)OC(=O)[C@H](CC(C)C)NC=O [Orlistat, orlistat]
- ΔWt. LossMAX ([2]; Dosage 120 mg (diabetics)): 4.3 kg
- ΔWt. LossMAX ([2]; Dosage 120 mg): 7.1 kg
- decay coefficient ([2]; Rossner study): 0.05
- Decay Coeff. (−b) [2]: 0.11 ± 0.02
- Decay Coeff. (−b) ([2]; listed as orlistat): 0.1±0.02

Compound: Cn1c(=O)c2c(ncn2C)n(C)c1=O [caffeine]
- Kcal/d ([3]; Dosage 500-700 mg/day): 50 to 75 kcal/day
- raise of energy expenditure ([4]; 600 mg/day dose): 63 kcal/day
- thermogenic response ([4]; dose 100 mg): 4-5%
- thermogenic response ([4]; dose 200-250 mg): 10-12%
- thermogenic response ([4]; dose 400-450 mg): 16%
- minimum (or near minimum) dose with demonstrable stimulatory effect on resting metabolic rate (RMR) ([4]; in vivo): 100 mg
- Estimated kcal/day reduction ([5]; first treatment phase): 60 kcal/day
- Estimated ΔWt. LossMAX ([5]; first treatment phase): 0.5 kg
- Estimated kg/wk reduction ([5]; third treatment phase): 0.05 kg/wk
- Estimated ΔWt. LossMAX ([5]; third treatment phase): 0.5 kg

Compound: COC(=O)[C@@H]1[C@H]2C[C@H]3c4[nH]c5ccccc5c4CCN3C[C@@H]2CC[C@@H]1O [yohimbine]
- Kg./wk ([3]; Dosage 20 mg/day): 0-0.16 Kg./wk
- ΔWt. LossMAX ([3]; Dosage 20 mg/day): 0 to 1.5 kg
- affinity for the α2-adrenergic receptor [6]: high affinity
- affinity for the α1-receptor [7]: moderate affinity
- Estimated kg/wk reduction ([5]; third treatment phase): 0.1 kg/wk
- Estimated ΔWt. LossMAX ([5]; third treatment phase): 1.5 kg

Compound: CC(C)CC(N(C)C)C1(c2ccc(Cl)cc2)CCC1 (centres unmarked) [Sibutramine, sibutramine]
- ΔWt. LossMAX ([2]; Dosage 1 mg): 3.7 kg
- ΔWt. LossMAX ([2]; Dosage 5 mg): 4.5 kg
- ΔWt. LossMAX ([2]; Dosage 10 mg): 8.4 kg
- ΔWt. LossMAX ([2]; Dosage 15 mg): 7.3 kg
- ΔWt. LossMAX ([2]; Dosage 20 mg): 8.5 kg
- ΔWt. LossMAX ([2]; Dosage 30 mg): 9.1 kg
- Decay Coeff. (−b) [2]: 0.14 ± 0.04
- Decay Coeff. (−b) ([2]; listed as sibutramine): 0.14±0.04

Compound: O=C(O)CC(O)(C(=O)O)C(O)C(=O)O (centres unmarked) [HCA, hydroxycitric acid]
- ΔWtmax [8]: about 3.5 kg

Compound: N[C@@H](Cc1c[nH]c2ccc(O)cc12)C(=O)O [5-hydroxytryptophan]
- Kcal/d ([3]; Dosage 50-900 mg oral): 400 kcal/day
- Kg./wk ([3]; Dosage 50-900 mg oral): 0.2 Kg./wk
- ΔWt. LossMAX ([3]; Dosage 50-900 mg oral): 1.5 to 2.5 kg
- reduction in energy intake ([4]; spontaneous reduction of calorie consumption): about 243 Kcal/day
- Estimated kcal/day reduction ([5]; first treatment phase): 240 kcal/day
- Estimated ΔWt. LossMAX ([5]; first treatment phase): 1.5 to 2.5 kg
- adverse effects [9]: nausea and diarrhea

— patent publication US20150157672A1, “KITS AND METHODS FOR SUSTAINED WEIGHT LOSS” (PHYTOLOGY LABS, INC., priority 2013, published 2015)
